According to ChEMBL document CHEMBL3763090, “A pharmacological perspective on the use of Brazilian Red Propolis and its isolated compounds against human diseases” (Eur J Med Chem, 2016):

Experiment: Antioxidant activity assessed as inhibition of linoleic acid oxidation at 90 ug/ml measured over 60 mins by beta-carotene bleaching test
Assay type: physicochemical
Conditions: 1 h

inhibition (INH): 39.5%
SMILES: COc1ccc([C@@H]2COc3cc(O)ccc3C2)c(O)c1
